{
  "source": "PubChem BioAssay AID1259407",
  "about": "(Chemical Carcinogenesis Research Information System (CCRIS), 2018)",
  "test_system": "CCRIS mutagenicity, Ames/micronucleus/aberration tests",
  "test": "CCRIS mutagenicity studies",
  "conditions": "Test System: AMES SALMONELLA TYPHIMURIUM",
  "key": {"[1]": {"conditions": "Strain/Indicator: TA98, Metabolic Activation: NONE, Method: PREINCUBATION"}, "[2]": {"conditions": "Strain/Indicator: TA100, Metabolic Activation: NONE, Method: PREINCUBATION"}},
  "note": "Calls of active or inactive are those of the source. How the calls were made is not given here.",
  "data": [
    {"compound": "FC(F)(F)c1cccc(Cl)c1", "values": [
      {"measurement": "mutagenic call", "setting": "Strain/Indicator: TA97, Metabolic Activation: HAMSTER, LIVER, S-9, AROCLOR 1254 (10%), Method: PREINCUBATION", "result": "inactive; negative"},
      {"measurement": "mutagenic call", "setting": "Strain/Indicator: TA97, Metabolic Activation: HAMSTER, LIVER, S-9, AROCLOR 1254 (30%), Method: PREINCUBATION", "result": "inactive; negative"},
      {"measurement": "mutagenic call", "setting": "Strain/Indicator: TA97, Metabolic Activation: NONE, Method: PREINCUBATION", "result": "inactive; negative"},
      {"measurement": "mutagenic call", "setting": "Strain/Indicator: TA97, Metabolic Activation: RAT, LIVER, S-9, AROCLOR 1254 (10%), Method: PREINCUBATION", "result": "inactive; negative"},
      {"measurement": "mutagenic call", "setting": "Strain/Indicator: TA97, Metabolic Activation: RAT, LIVER, S-9, AROCLOR 1254 (30%), Method: PREINCUBATION", "result": "inactive; negative"},
      {"measurement": "mutagenic call", "setting": "Strain/Indicator: TA98, Metabolic Activation: HAMSTER, LIVER, S-9, AROCLOR 1254 (10%), Method: PREINCUBATION", "result": "inactive; negative"},
      {"measurement": "mutagenic call", "setting": "Strain/Indicator: TA98, Metabolic Activation: HAMSTER, LIVER, S-9, AROCLOR 1254 (30%), Method: PREINCUBATION", "result": "inactive; negative"},
      {"measurement": "mutagenic call", "setting": "[1]", "result": "inactive; negative"},
      {"measurement": "mutagenic call", "setting": "Strain/Indicator: TA98, Metabolic Activation: NONE, Method: STANDARD PLATE", "result": "inactive; negative"},
      {"measurement": "mutagenic call", "setting": "Strain/Indicator: TA98, Metabolic Activation: RAT, LIVER, S-9, AROCLOR 1254 (10%), Method: PREINCUBATION", "result": "inactive; negative"},
      {"measurement": "mutagenic call", "setting": "Strain/Indicator: TA98, Metabolic Activation: RAT, LIVER, S-9, AROCLOR 1254 (30%), Method: PREINCUBATION", "result": "inactive; negative"},
      {"measurement": "mutagenic call", "setting": "Strain/Indicator: TA98, Metabolic Activation: RAT, LIVER, S-9, AROCLOR 1254, Method: STANDARD PLATE", "result": "inactive; negative"},
      {"measurement": "mutagenic call", "setting": "Strain/Indicator: TA100, Metabolic Activation: HAMSTER, LIVER, S-9, AROCLOR 1254 (10%), Method: PREINCUBATION", "result": "inactive; negative"},
      {"measurement": "mutagenic call", "setting": "Strain/Indicator: TA100, Metabolic Activation: HAMSTER, LIVER, S-9, AROCLOR 1254 (30%), Method: PREINCUBATION", "result": "inactive; negative"},
      {"measurement": "mutagenic call", "setting": "[2]", "result": "inactive; negative"},
      {"measurement": "mutagenic call", "setting": "Strain/Indicator: TA100, Metabolic Activation: NONE, Method: STANDARD PLATE", "result": "inactive; negative"},
      {"measurement": "mutagenic call", "setting": "Strain/Indicator: TA100, Metabolic Activation: RAT, LIVER, S-9, AROCLOR 1254 (10%), Method: PREINCUBATION", "result": "inactive; negative"},
      {"measurement": "mutagenic call", "setting": "Strain/Indicator: TA100, Metabolic Activation: RAT, LIVER, S-9, AROCLOR 1254 (30%), Method: PREINCUBATION", "result": "inactive; negative"},
      {"measurement": "mutagenic call", "setting": "Strain/Indicator: TA100, Metabolic Activation: RAT, LIVER, S-9, AROCLOR 1254, Method: STANDARD PLATE", "result": "inactive; negative"},
      {"measurement": "mutagenic call", "setting": "Strain/Indicator: TA1535, Metabolic Activation: HAMSTER, LIVER, S-9, AROCLOR 1254 (10%), Method: PREINCUBATION", "result": "inactive; negative"},
      {"measurement": "mutagenic call", "setting": "Strain/Indicator: TA1535, Metabolic Activation: HAMSTER, LIVER, S-9, AROCLOR 1254 (30%), Method: PREINCUBATION", "result": "inactive; negative"},
      {"measurement": "mutagenic call", "setting": "Strain/Indicator: TA1535, Metabolic Activation: NONE, Method: PREINCUBATION", "result": "inactive; negative"},
      {"measurement": "mutagenic call", "setting": "Strain/Indicator: TA1535, Metabolic Activation: NONE, Method: STANDARD PLATE", "result": "inactive; negative"},
      {"measurement": "mutagenic call", "setting": "Strain/Indicator: TA1535, Metabolic Activation: RAT, LIVER, S-9, AROCLOR 1254 (10%), Method: PREINCUBATION", "result": "inactive; negative"},
      {"measurement": "mutagenic call", "setting": "Strain/Indicator: TA1535, Metabolic Activation: RAT, LIVER, S-9, AROCLOR 1254 (30%), Method: PREINCUBATION", "result": "inactive; negative"},
      {"measurement": "mutagenic call", "setting": "Strain/Indicator: TA1535, Metabolic Activation: RAT, LIVER, S-9, AROCLOR 1254, Method: STANDARD PLATE", "result": "inactive; negative"},
      {"measurement": "mutagenic call", "setting": "Strain/Indicator: TA1537, Metabolic Activation: HAMSTER, LIVER, S-9, AROCLOR 1254 (30%), Method: PREINCUBATION", "result": "inactive; negative"},
      {"measurement": "mutagenic call", "setting": "Strain/Indicator: TA1537, Metabolic Activation: NONE, Method: PREINCUBATION", "result": "inactive; negative"},
      {"measurement": "mutagenic call", "setting": "Strain/Indicator: TA1537, Metabolic Activation: NONE, Method: STANDARD PLATE", "result": "inactive; negative"},
      {"measurement": "mutagenic call", "setting": "Strain/Indicator: TA1537, Metabolic Activation: RAT, LIVER, S-9, AROCLOR 1254 (30%), Method: PREINCUBATION", "result": "inactive; negative"},
      {"measurement": "mutagenic call", "setting": "Strain/Indicator: TA1537, Metabolic Activation: RAT, LIVER, S-9, AROCLOR 1254, Method: STANDARD PLATE", "result": "inactive; negative"},
      {"measurement": "mutagenic call", "setting": "Strain/Indicator: TA1538, Metabolic Activation: NONE, Method: STANDARD PLATE", "result": "inactive; negative"},
      {"measurement": "mutagenic call", "setting": "Strain/Indicator: TA1538, Metabolic Activation: RAT, LIVER, S-9, AROCLOR 1254, Method: STANDARD PLATE", "result": "inactive; negative"}
    ]},
    {"compound": "Cc1c(N)cccc1N=Nc1cccc(N)c1C", "values": [
      {"measurement": "mutagenic call", "setting": "[1]", "result": "inactive; negative"},
      {"measurement": "mutagenic call", "setting": "Strain/Indicator: TA98, Metabolic Activation: RAT, LIVER, S-9, PHENOBARBITAL AND 5,6-BENZOFLAVONE, Method: PREINCUBATION", "result": "active; positive"},
      {"measurement": "mutagenic call", "setting": "[2]", "result": "inactive; negative"},
      {"measurement": "mutagenic call", "setting": "Strain/Indicator: TA100, Metabolic Activation: RAT, LIVER, S-9, PHENOBARBITAL AND 5,6-BENZOFLAVONE, Method: PREINCUBATION", "result": "active; positive"}
    ]},
    {"compound": "O=C(CCCl)N=c1sn(C(=O)CCCl)c2ccc(Cl)cc12", "values": [
      {"measurement": "mutagenic call", "setting": "Strain/Indicator: TA100, Metabolic Activation: S-9, Method: STANDARD PLATE", "result": "inactive; negative"}
    ]}
  ]
}
